Assay results published in the OligoGym collection.
Values joined by “and” are separate entries in the source; they are usually repeats but may differ in a detail not shown here. Equal entries are not always repeated. After the bases stand the sugars from the 5' end (letter, count) and the backbone: PS all phosphorothioate, else s phosphorothioate and o phosphodiester by linkage. Methylation of C is not given here. e = 2'-O-(2-methoxyethyl) (MOE); k = constrained ethyl (cEt); d = 2'-deoxy (DNA)

Assays:
[1] = molecular target: SOD1; details: ASO
[2] = molecular target: MALAT1; details: ASO, A431, 0.005 µM

AAAATACAGGTCATTGA (sugars e3 k2 d7 k2 e3, PS)
target mRNA inhibition ([1]; HepG2, 3 µM): 28%

AAACAGACATTTTAACTGAG (sugars e5 d10 e5, PS)
target mRNA inhibition ([1]; HepG2, 5 µM): 4%

AAACTATACAAATCTTC (sugars e2 k2 d9 k2 e2, PS)
target mRNA inhibition ([1]; HepG2, 5 µM): 55%

AAATCTTCCAAGTGATC (sugars e2 k2 d8 k2 e3, PS)
target mRNA inhibition ([1]; HepG2, 5 µM): 46%

AAGAAATTCTGACAAGT (sugars e3 k2 d7 k2 e3, PS)
target mRNA inhibition ([1]; HepG2, 3 µM): 18%

AAGTCACACAATTACAC (sugars e2 k2 d8 k2 e3, PS)
target mRNA inhibition ([1]; HepG2, 5 µM): 41%

AAGTGATCATAAATCAGTTT (sugars e5 d10 e5, PS)
target mRNA inhibition ([1]; HepG2, 4 µM): 86% | target mRNA inhibition ([1]; HepG2, 5 µM): 8% | target mRNA inhibition ([1]; HepG2, 12 µM): 96%

AAGTTTAATACCCATCT (sugars e3 k2 d7 k2 e3, PS)
target mRNA inhibition ([1]; HepG2, 3 µM): 12%

AATAAGTGCCATACAGG (sugars e2 k2 d9 k2 e2, PS)
target mRNA inhibition ([1]; HepG2, 5 µM): 36%

AATAGCCTCATAATAAG (sugars e2 k2 d9 k2 e2, PS)
target mRNA inhibition ([1]; HepG2, 5 µM): 25%

AATCTTCCAAGTGATCA (sugars e2 k2 d8 k2 e3, PS)
target mRNA inhibition ([1]; HepG2, 5 µM): 19%

AATGATGCAATGGTCTCCTG (sugars e5 d10 e5, PS)
target mRNA inhibition ([1]; HepG2, 5 µM): 0%

AATGCTTCCCCACACCT (sugars e3 k2 d7 k2 e3, PS)
target mRNA inhibition ([1]; HepG2, 3 µM): 35%

AATTCTGACAAGTTTAA (sugars e3 k2 d7 k2 e3, PS)
target mRNA inhibition ([1]; HepG2, 3 µM): 15%

ACACCTTCACTGGTCCA (sugars e3 k2 d7 k2 e3, PS)
target mRNA inhibition ([1]; HepG2, 3 µM): 20%

ACACCTTCACTGGTCCATTA (sugars e5 d10 e5, linkages s1 o3 s11 o3 s1)
target mRNA inhibition ([1]; A431, 0.12 µM): 5% | target mRNA inhibition ([1]; A431, 0.6 µM): 4% | target mRNA inhibition ([1]; A431, 3 µM): 4% | target mRNA inhibition ([1]; A431, 15 µM): 10% | target mRNA inhibition ([1]; HepG2, 2 µM): 50% and 36% and 39%

ACAGGCTTGAATGACAAAGA (sugars e5 d10 e5, PS)
target mRNA inhibition ([1]; HepG2, 5 µM): 19%

ACAGGGTTTTTATTCAC (sugars e3 k2 d7 k2 e3, PS)
target mRNA inhibition ([1]; HepG2, 3 µM): 10%

ACAGGTACTTTAAAGCA (sugars e2 k2 d8 k2 e3, PS)
target mRNA inhibition ([1]; HepG2, 5 µM): 14%

ACAGTGTTTAATGTTTA (sugars e3 k2 d7 k2 e3, linkages s1 o2 s9 o2 s2)
target mRNA inhibition ([1]; A431, 0.12 µM): 12% | target mRNA inhibition ([1]; A431, 0.6 µM): 26% | target mRNA inhibition ([1]; A431, 3 µM): 45% | target mRNA inhibition ([1]; A431, 15 µM): 47% | target mRNA inhibition ([1]; HepG2, 0.222 µM): 51% | target mRNA inhibition ([1]; HepG2, 0.667 µM): 70% | target mRNA inhibition ([1]; HepG2, 2 µM): 80% | target mRNA inhibition ([1]; HepG2, 6 µM): 74%

ACCAGTGTGCGGCCAATGAT (sugars e5 d10 e5, PS)
target mRNA inhibition ([1]; HepG2, 5 µM): 0%

ACCCATCTGTGATTTAA (sugars e2 k2 d8 k2 e3, PS)
target mRNA inhibition ([1]; HepG2, 5 µM): 33%

ACCTGCACTGGTACAGC (sugars e3 k2 d7 k2 e3, PS)
target mRNA inhibition ([1]; HepG2, 3 µM): 12%

ACTATACAAATCTTCCA (sugars e3 k2 d7 k2 e3, PS)
target mRNA inhibition ([1]; HepG2, 3 µM): 10%

ACTCATGAACATGGAATCCA (sugars e5 d10 e5, PS)
target mRNA inhibition ([1]; HepG2, 5 µM): 27% and 20%

ACTCTGAAAAAGTCACACAA (sugars e5 d10 e5, PS)
target mRNA inhibition ([1]; HepG2, 5 µM): 21%

ACTGGTACAGCCTGCTGTAT (sugars e5 d10 e5, PS)
target mRNA inhibition ([1]; HepG2, 5 µM): 22% and 28%

ACTGGTCCATTACTTTC (sugars e3 k2 d7 k2 e3, PS)
target mRNA inhibition ([1]; HepG2, 3 µM): 14%

ACTTTAAAGCAACTCTGAAA (sugars e5 d10 e5, PS)
target mRNA inhibition ([1]; HepG2, 5 µM): 0%

AGACACATCGGCCACAC (sugars e3 k2 d7 k2 e3, PS)
target mRNA inhibition ([1]; HepG2, 3 µM): 21%

AGACATTTTAACTGAGT (sugars e2 k2 d8 k2 e3, PS)
target mRNA inhibition ([1]; HepG2, 5 µM): 46%

AGATCACAGAATCTTCAATA (sugars e5 d10 e5, PS)
target mRNA inhibition ([1]; HepG2, 5 µM): 14% and 29%

AGATTACAGTGTTTAAT (sugars e2 k2 d8 k2 e3, PS)
target mRNA inhibition ([1]; HepG2, 0.1875 µM): 16% | target mRNA inhibition ([1]; HepG2, 0.75 µM): 50% | target mRNA inhibition ([1]; HepG2, 3 µM): 62% | target mRNA inhibition ([1]; HepG2, 5 µM): 68% | target mRNA inhibition ([1]; HepG2, 12 µM): 77%

AGATTACAGTGTTTAAT (sugars e2 k2 d9 k2 e2, PS)
target mRNA inhibition ([1]; HepG2, 0.1875 µM): 28% | target mRNA inhibition ([1]; HepG2, 0.75 µM): 41% | target mRNA inhibition ([1]; HepG2, 3 µM): 63% | target mRNA inhibition ([1]; HepG2, 5 µM): 63% | target mRNA inhibition ([1]; HepG2, 12 µM): 71%

AGGAGACTACGACGCAAACC (sugars e5 d10 e5, PS)
target mRNA inhibition ([1]; HepG2, 4 µM): 35%

AGGATAACAGATGAGTT (sugars e3 k2 d7 k2 e3, PS)
target mRNA inhibition ([1]; HepG2, 3 µM): 45%

AGGATACATTTCTACAG (sugars e2 k2 d9 k2 e2, PS)
target mRNA inhibition ([1]; HepG2, 0.1875 µM): 9% | target mRNA inhibition ([1]; HepG2, 0.75 µM): 52% | target mRNA inhibition ([1]; HepG2, 3 µM): 81% | target mRNA inhibition ([1]; HepG2, 4 µM): 77% | target mRNA inhibition ([1]; HepG2, 12 µM): 95%

AGGTACTTTAAAGCAAC (sugars e2 k2 d8 k2 e3, PS)
target mRNA inhibition ([1]; HepG2, 5 µM): 35%

AGGTACTTTAAAGCAAC (sugars e2 k2 d9 k2 e2, PS)
target mRNA inhibition ([1]; HepG2, 5 µM): 42%

TGCCTTTAGGATTCTAGACA (sugars e5 d10 e5, PS)
target mRNA inhibition [2]: 39% and 51%

TGCGCTGGCTGCCTCA (sugars k3 d10 k3, PS)
target mRNA inhibition [2]: 25%

TGCGGTTTCCTCAAGC (sugars k3 d10 k3, PS)
target mRNA inhibition [2]: 26%

TGCTACTCTTCTAAGT (sugars k3 d10 k3, PS)
target mRNA inhibition [2]: 19%

TGCTGATAAACTCACT (sugars k3 d10 k3, PS)
target mRNA inhibition [2]: 46%

TGGAAGCTCCTTCTAT (sugars k3 d10 k3, PS)
target mRNA inhibition [2]: -19%

TGGACATTGCCTCTTC (sugars k3 d10 k3, PS)
target mRNA inhibition [2]: 29%

TGGCATATGCAGATAA (sugars k3 d10 k3, PS)
target mRNA inhibition [2]: 69% and 89%

TGGCGATGTGGCAGAG (sugars k3 d10 k3, PS)
target mRNA inhibition [2]: 35%

TGGTACACCCAGTGGC (sugars k3 d10 k3, PS)
target mRNA inhibition [2]: 17%

TGTAAAACATTGCCTA (sugars k3 d10 k3, PS)
target mRNA inhibition [2]: -7%

TGTAGTTAATGTCAGC (sugars k3 d10 k3, PS)
target mRNA inhibition [2]: 67% and 42%

TGTCAATTAATGCTAG (sugars k3 d10 k3, PS)
target mRNA inhibition [2]: 42%

TGTGATAGTTCAGGGC (sugars k3 d10 k3, PS)
target mRNA inhibition [2]: -12%

TGTTCGAGAAATCGGA (sugars k3 d10 k3, PS)
target mRNA inhibition [2]: 17%

TTAAAAAGGCTCGATG (sugars k3 d10 k3, PS)
target mRNA inhibition [2]: 21%

TTAAATGACGCAATTC (sugars k3 d10 k3, PS)
target mRNA inhibition [2]: 4%

TTAAATTACACCAGTC (sugars k3 d10 k3, PS)
target mRNA inhibition [2]: 50% and 65%

TTAAATTGATGGGCTT (sugars k3 d10 k3, PS)
target mRNA inhibition [2]: 22%

TTAAGAGAAGCCCAGG (sugars k3 d10 k3, PS)
target mRNA inhibition [2]: 24%

TTAATCACCTTCGGTT (sugars k3 d10 k3, PS)
target mRNA inhibition [2]: 27%

TTAATGTAGTGTAACA (sugars k3 d10 k3, PS)
target mRNA inhibition [2]: 30%

TTACAAAACGAATTCA (sugars k3 d10 k3, PS)
target mRNA inhibition [2]: 10%

TTACACCAGTCCTTTT (sugars k3 d10 k3, PS)
target mRNA inhibition [2]: 37%

TTACACCTCAGTACGA (sugars k3 d10 k3, PS)
target mRNA inhibition [2]: 15%

TTACGAAAGTCCTTCA (sugars k3 d10 k3, PS)
target mRNA inhibition [2]: 28%

TTACTTTCCATTACGC (sugars k3 d10 k3, PS)
target mRNA inhibition [2]: 16%

TTAGAGAAGAATCCCC (sugars k3 d10 k3, PS)
target mRNA inhibition [2]: 31%

TTAGAGGGCCTCTATT (sugars k3 d10 k3, PS)
target mRNA inhibition [2]: 3%

TTATATTAGGTTCTCG (sugars k3 d10 k3, PS)
target mRNA inhibition [2]: -6%

TTATCCCTAACATGCA (sugars k3 d10 k3, PS)
target mRNA inhibition [2]: 8%

TTATGGAACTTGAATG (sugars k3 d10 k3, PS)
target mRNA inhibition [2]: 7%

TTATTCCAGGATTAAT (sugars k3 d10 k3, PS)
target mRNA inhibition [2]: -5%

TTCAACTGGGAATACT (sugars k3 d10 k3, PS)
target mRNA inhibition [2]: 17%

TTCCCTATATAAGGTC (sugars k3 d10 k3, PS)
target mRNA inhibition [2]: 6%

TTCCGCCGCCTCTTAA (sugars k3 d10 k3, PS)
target mRNA inhibition [2]: 22%

TTCCGCTAAGATGCTA (sugars k3 d10 k3, PS)
target mRNA inhibition [2]: 9%

TTCCGTTACGAAAGTC (sugars k3 d10 k3, PS)
target mRNA inhibition [2]: 33%

TTCCTAGCTTCACCAC (sugars k3 d10 k3, PS)
target mRNA inhibition [2]: 36%

TTCCTTATTTAGAGGG (sugars k3 d10 k3, PS)
target mRNA inhibition [2]: 14%

TTCCTTTCATAGAGCC (sugars k3 d10 k3, PS)
target mRNA inhibition [2]: 70% and 88%

TTCGCAGACAAAGTTT (sugars k3 d10 k3, PS)
target mRNA inhibition [2]: 22%

TTCTACCGTTTTTCAG (sugars k3 d10 k3, PS)
target mRNA inhibition [2]: 10%

TTGAAACCGATTATGG (sugars k3 d10 k3, PS)
target mRNA inhibition [2]: 42%

TTGACAAGCAATTAAC (sugars k3 d10 k3, PS)
target mRNA inhibition [2]: 7%

TTGAGGCAAGTCCTCA (sugars k3 d10 k3, PS)
target mRNA inhibition [2]: 3%

TTGAGGGACAGTAGGT (sugars k3 d10 k3, PS)
target mRNA inhibition [2]: 21%

TTGCCCCTCCCCTTTA (sugars k3 d10 k3, PS)
target mRNA inhibition [2]: 42%

TTGCTTACACACAACT (sugars k3 d10 k3, PS)
target mRNA inhibition [2]: 18%

TTGGCCTACTCAAGCT (sugars k3 d10 k3, PS)
target mRNA inhibition [2]: -8%

TTTACAGAAGTCTCGG (sugars k3 d10 k3, PS)
target mRNA inhibition [2]: -31%

TTTAGAGGGCCTCTAT (sugars k3 d10 k3, PS)
target mRNA inhibition [2]: 17%

TTTAGGATTCTAGACA (sugars k3 d10 k3, PS)
target mRNA inhibition [2]: 25%

TTTATAGACGGAGAAC (sugars k3 d10 k3, PS)
target mRNA inhibition [2]: -6%

TTTGAGTATGCTGATA (sugars k3 d10 k3, PS)
target mRNA inhibition [2]: 47%

TTTTTGTGGTTATAGC (sugars k3 d10 k3, PS)
target mRNA inhibition [2]: 75% and 88%

TTTTTGTTCGAGAAAT (sugars k3 d10 k3, PS)
target mRNA inhibition [2]: -7%
